Data from US12263171B2, “7-, 8-, and 10-substituted amino triazolo quinazoline derivatives as adenosine receptor antagonists, pharmaceutical compositions and their use” (Merck Sharp & Dohme LLC, priority 2018, dated 2025).

How the values were obtained:
[1] = target: human A2a adenosine receptor (Homo sapiens (Human), UniProt P29274); experiment: A2a receptor affinity radioligand binding assay ([3H] SCH58261, membranes from HEK293 or CHO cells); conditions: unstarred values: radioligand binding
Procedure, shortened: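 Displacement of tritiated SCH58261 (working dilution 4 nM) from recombinant human A2a receptor membranes (HEK293 or CHO), 60 min at room temperature in Tris pH 7.4/MgCl2 buffer after 15–30 min compound preincubation. Scintillation counting after filtration; normalized percent effect fitted 4-parameter logistic for IC50.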

[2] = target: human A2b adenosine receptor (Homo sapiens (Human), UniProt P29275); experiment: A2B antagonism in cAMP cell-based assay (LANCE cAMP, HEK293 cells, 600 nM adenosine); conditions: for IC50: values marked *: cAMP cell-based assay; for *A2B cAMP % inh. @ 10000 nM: marked *
Chain of human A2b adenosine receptor (P29275 whole entry): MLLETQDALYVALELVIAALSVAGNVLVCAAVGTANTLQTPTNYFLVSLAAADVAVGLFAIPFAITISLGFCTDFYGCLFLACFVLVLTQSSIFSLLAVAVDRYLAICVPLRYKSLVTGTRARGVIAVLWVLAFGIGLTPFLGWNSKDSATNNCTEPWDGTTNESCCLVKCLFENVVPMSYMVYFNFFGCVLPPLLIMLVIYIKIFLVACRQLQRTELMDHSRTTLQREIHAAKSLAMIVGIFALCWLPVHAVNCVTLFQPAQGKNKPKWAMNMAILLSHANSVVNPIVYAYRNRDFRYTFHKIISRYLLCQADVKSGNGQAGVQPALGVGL

Chain of human A2a adenosine receptor (P29274 whole entry): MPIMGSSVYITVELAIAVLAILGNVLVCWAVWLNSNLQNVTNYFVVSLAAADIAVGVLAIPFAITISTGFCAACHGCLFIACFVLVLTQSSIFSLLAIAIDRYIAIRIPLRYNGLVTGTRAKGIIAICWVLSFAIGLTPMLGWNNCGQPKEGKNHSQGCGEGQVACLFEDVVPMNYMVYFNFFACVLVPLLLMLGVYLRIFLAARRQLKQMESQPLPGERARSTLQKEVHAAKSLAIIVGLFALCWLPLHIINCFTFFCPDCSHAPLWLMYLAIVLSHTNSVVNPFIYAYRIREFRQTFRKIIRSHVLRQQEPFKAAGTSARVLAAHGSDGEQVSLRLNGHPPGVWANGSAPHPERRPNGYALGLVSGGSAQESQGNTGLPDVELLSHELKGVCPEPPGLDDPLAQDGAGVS

| SMILES | IC50 [1] [nM] | IC50 [2] [nM] | *A2B cAMP % inh. @ 10000 nM [2] [% inh. @ 10000 nM*] |
| --- | --- | --- | --- |
| COc1cccc2c1nc(N)n1nc([C@@H]3CCCN(c4ncc(F)cn4)C3)nc21 [Example 110, (R)-2-(1-(5-fluoropyrimidin-2-yl)piperidin-3-yl)-7-methoxy-[1,2,4]triazolo[1,5-c]quinazolin-5-amine] | 2.2 | 721 | – |
| COc1cccc2c1nc(N)n1nc([C@@H]3CCCN(c4nccc(C(F)(F)F)n4)C3)nc21 [Example 111, (R)-7-methoxy-2-(1-(4-(trifluoromethyl)pyrimidin-2-yl)piperidin-3-yl)-[1,2,4]triazolo[1,5-c]quinazolin-5-amine] | 16.4 | – | 10 |
| COc1cccc2c1nc(N)n1nc([C@@H]3CCCN(c4ccc(C(F)(F)F)nc4)C3)nc21 [Example 112, (R)-7-methoxy-2-(1-(6-(trifluoromethyl)pyridin-3-yl)piperidin-3-yl)-[1,2,4]triazolo[1,5-c]quinazolin-5-amine] | 3.5 | 213 | – |
| COc1cccc2c1nc(N)n1nc([C@@H]3CCCN(c4cncc(F)c4)C3)nc21 [Example 113, (R)-2-(1-(5-fluoropyridin-3-yl)piperidin-3-yl)-7-methoxy-[1,2,4]triazolo[1,5-c]quinazolin-5-amine] | 0.6 | 209 | – |
| COc1cccc2c1nc(N)n1nc([C@@H]3CCCN(c4cccc(C(F)(F)F)c4)C3)nc21 [Example 114, (R)-7-methoxy-2-(1-(3-(trifluoromethyl)phenyl)piperidin-3-yl)-[1,2,4]triazolo[1,5-c]quinazolin-5-amine] | 1.7 | 370 | – |
| COc1cccc2c1nc(N)n1nc([C@@H]3CCCN(c4ccccn4)C3)nc21 [Example 119] | 1.2 | 18.1 | – |
| COc1cccc2c1nc(N)n1nc([C@@H]3CCCN(c4cnn(CC(C)(C)N)c4)C3)nc21 [Example 120, (R)-2-(1-(1-(2-amino-2-methylpropyl)-1H-pyrazol-4-yl)piperidin-3-yl)-7-methoxy-[1,2,4]triazolo[1,5-c]quinazolin-5-amine] | 3.1 | 321 | – |
| COc1cccc2c1nc(N)n1nc([C@@H]3CCCN(c4cnn(CS(C)(=O)=O)c4)C3)nc21 [Example 123, (R)-7-methoxy-2-(1-(1-((methylsulfonyl)methyl)-1H-pyrazol-4-yl)piperidin-3-yl)-[1,2,4]triazolo[1,5-c]quinazolin-5-amine] | 0.8 | 13.1 | – |
| Nc1nc2c(OC(F)F)cccc2c2nc([C@@H]3CCCN(c4cnn(C5CC5)c4)C3)nn12 [Example 125, (R)-2-(1-(1-cyclopropyl-1H-pyrazol-4-yl)piperidin-3-yl)-7-(difluoromethoxy)-[1,2,4]triazolo[1,5-c]quinazolin-5-amine] | 7.7 | 1280 | – |
| Cn1cc(N2CCC[C@@H](c3nc4c5cccc(OC(F)F)c5nc(N)n4n3)C2)cn1 [Example 126, (R)-7-(difluoromethoxy)-2-(1-(1-methyl-1H-pyrazol-4-yl)piperidin-3-yl)-[1,2,4]triazolo[1,5-c]quinazolin-5-amine] | 13.2 | 2510 | – |
| COc1cccc2c1nc(N)n1nc(C34CC(C3)N(c3cnn(C)c3)C4)nc21 [Example 127, 7-methoxy-2-(2-(1-methyl-1H-pyrazol-4-yl)-2-azabicyclo[2.1.1]hexan-4-yl)-[1,2,4]triazolo[1,5-e]quinazolin-5-amine] | 56.8 | 1650 | – |
| COc1cccc2c1nc(N)n1nc(C3CCCN(c4cnn(C5CC5)c4)C3C)nc21 (centres unmarked) [Example 129] | 5280 | – | 30 |
| COc1cccc2c1nc(N)n1nc([C@@H]3CCC[C@@H](c4cnn(C)c4)C3)nc21 [Example 136B, 7-methoxy-2-((1R,3R)-3-(1-methyl-1H-pyrazol-4-yl)cyclohexyl)-[1,2,4]triazolo[1,5-c]quinazolin-5-amine] | 10.8 | 404 | – |
| CCn1cc(N2CC[C@@H](c3nc4c5cccc(OC)c5nc(N)n4n3)C2)cn1 [Example 160, (R)-2-(1-(1-ethyl-1H-pyrazol-4-yl)pyrrolidin-3-yl)-7-methoxy-[1,2,4]triazolo[1,5-c]quinazolin-5-amine] | 19 | 395 | – |
| COc1cccc2c1nc(N)n1nc([C@@H]3CCN(c4cnn(C5CC5)c4)C3)nc21 [Example 161, (R)-2-(1-(1-cyclopropyl-1H-pyrazol-4-yl)pyrrolidin-3-yl)-7-methoxy-[1,2,4]triazolo[1,5-c]quinazolin-5-amine] | 13.2 | 231 | – |
| COc1cccc2c1nc(N)n1nc([C@@H]3CCN(c4cnn(C(C)(C)C)c4)C3)nc21 [Example 163, (R)-2-(1-(1-(tert-butyl)-1H-pyrazol-4-yl)pyrrolidin-3-yl)-7-methoxy-[1,2,4]triazolo[1,5-c]quinazolin-5-amine] | 14 | 42.1 | – |
| COc1cccc2c1nc(N)n1nc([C@@H]3CCN(c4cnn(CC(F)(F)F)c4)C3)nc21 [Example 164, (R)-7-methoxy-2-(1-(1-(2,2,2-trifluoroethyl)-1H-pyrazol-4-yl)pyrrolidin-3-yl)-[1,2,4]triazolo[1,5-c]quinazolin-5-amine] | 8.9 | 29.5 | – |
| COc1ccc2c(c1)nc(N)n1nc([C@@H]3CCCN(c4cnn(C)c4)C3)nc21 [Example 177, (R)-8-methoxy-2-(1-(1-methyl-1H-pyrazol-4-yl)piperidin-3-yl)-[1,2,4]triazolo[1,5-c]quinazolin-5-amine] | 4.7 | 132 | – |
| COc1ccc2c(c1)nc(N)n1nc([C@@H]3CCCN(c4cnn(C5CC5)c4)C3)nc21 [Example 184, (R)-2-(1-(1-cyclopropyl-1H-pyrazol-4-yl)piperidin-3-yl)-8-methoxy-[1,2,4]triazolo[1,5-c]quinazolin-5-amine] | 4 | 141 | – |
| COc1ccc2c(c1)nc(N)n1nc([C@@H]3CC[C@H](C)N(c4cn(CC(C)(C)O)nc4C)C3)nc21 [Example 213, 1-(4-((2S,5R)-5-(5-amino-8-methoxy-[1,2,4]triazolo[1,5-c]quinazolin-2-yl)-2-methylpiperidin-1-yl)-3-methyl-1H-pyrazol-1-yl)-2-methylpropan-2-ol] | 0.4 | 27.6 | – |
| COc1ccc2c(c1)nc(N)n1nc([C@@H]3CC[C@H](C)N(c4cnn(C(C)(C)CO)c4)C3)nc21 [Example 214, 2-(4-((2S,5R)-5-(5-amino-8-methoxy-[1,2,4]triazolo[1,5-c]quinazolin-2-yl)-2-methylpiperidin-1-yl)-1H-pyrazol-1-yl)-2-methylpropan-1-ol] | 0.2 | 2.8 | – |

Continued, values first:

| IC50 [1] [nM] | IC50 [2] [nM] | *A2B cAMP % inh. @ 10000 nM [2] [% inh. @ 10000 nM*] | SMILES |
| --- | --- | --- | --- |
| 5 | 3010 | – | CCn1cc(N2C[C@H](c3nc4c5cccc(OC)c5nc(N)n4n3)CC[C@@H]2C)cn1 [Example 140D] |
| 3.1 | 333 | – | COc1cccc2c1nc(N)n1nc([C@H]3CC[C@H](C)N(c4cnn(CC5(O)CCC5)c4)C3)nc21 [Example 144B] |
| 0.2 | 5.6 | – | COc1cccc2c1nc(N)n1nc([C@@H]3CC[C@H](C)N(c4cnn(C(C)C(C)(C)O)c4)C3)nc21 (stereo partly drawn) [Example 147D, 3-(4-((2S,5R)-5-(5-amino-7-methoxy-[1,2,4]triazolo[1,5-c]quinazolin-2-yl)-2-methylpiperidin-1-yl)-1H-pyrazol-1-yl)-2-methylbutan-2-ol] |
| 1 | 234 | – | COc1cccc2c1nc(N)n1nc([C@H]3C[C@@H](F)CN(c4cnn(C5CC5)c4)C3)nc21 [Example 148A] |
| 27.8 | – | 36 | COc1cccc2c1nc(N)n1nc([C@@H]3C[C@@H](F)CN(c4cnn(C5CC5)c4)C3)nc21 [Example 148B] |
| 1 | 677 | – | CCn1cc(N2C[C@H](c3nc4c5cccc(OC)c5nc(N)n4n3)CC(F)(F)C2)cn1 [Example 153B] |
| 0.5 | 6.3 | – | CC[C@@H]1CC[C@@H](c2nc3c4ccc(OC)cc4nc(N)n3n2)CN1c1cnn(C(C)(C)CO)c1 [Example 215B] |
| 8.7 | 1330 | – | CC[C@H]1CC[C@H](c2nc3c4ccc(OC)cc4nc(N)n3n2)CN1c1cnn(C(C)(C)CO)c1 [Example 215C] |
| 20.7 | 721 | – | CC[C@H]1CC[C@@H](c2nc3c4ccc(OC)cc4nc(N)n3n2)CN1c1cnn(C(C)(C)CO)c1 [Example 215D] |
| 33.9 | 651 | – | CC[C@@H]1CC[C@@H](c2nc3c4cccc(OC)c4nc(N)n3n2)CN1c1cnn(CC(C)(C)O)c1 [Example 216A, 1-(4-((2R,5R)-5-(5-amino-7-methoxy-[1,2,4]triazolo[1,5-c]quinazolin-2-yl)-2-ethylpiperidin-1-yl)-1H-pyrazol-1-yl)-2-methylpropan-2-ol] |
| 0.4 | 6.6 | – | CC[C@H]1CC[C@H](c2nc3c4cccc(OC)c4nc(N)n3n2)CN1c1cnn(CC(C)(C)O)c1 [Example 216B, 1-(4-((2S,5S)-5-(5-amino-7-methoxy-[1,2,4]triazolo[1,5-c]quinazolin-2-yl)-2-ethylpiperidin-1-yl)-1H-pyrazol-1-yl)-2-methylpropan-2-ol] |
| 23.5 | 292 | – | CC[C@H]1CC[C@@H](c2nc3c4cccc(OC)c4nc(N)n3n2)CN1c1cnn(CC(C)(C)O)c1 [Example 216C, 1-(4-((2S,5R)-5-(5-amino-7-methoxy-[1,2,4]triazolo[1,5-c]quinazolin-2-yl)-2-ethylpiperidin-1-yl)-1H-pyrazol-1-yl)-2-methylpropan-2-ol] |
| 0.5 | 1970 | – | COc1ccc2c(c1)nc(N)n1nc([C@H]3C[C@@H](C)CN(c4cn([C@@H](C)[C@H](C)O)nc4C)C3)nc21 [Example 219A, (2S,3S)-3-(4-((3S,5R)-3-(5-amino-8-methoxy-[1,2,4]triazolo[1,5-c]quinazolin-2-yl)-5-methylpiperidin-1-yl)-3-methyl-1H-pyrazol-1-yl)butan-2-ol] |
